Test results from the supplement of paper PMC6045584.
± gives the standard deviation of the averaged measurements.

Compound: CS(=O)(=O)c1ccc(C(=O)Nc2ccc(Cl)c(-c3ccccn3)c2)c(Cl)c1 [VISMODEGIB]
Experiment: surviving fraction relative to DMSO-only wells; higher = less growth inhibition
Conditions: exposure time: 5 days
Summary of the method: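 Viability was scored with CellTiter-Glo luminescence and normalised to the median of DMSO-only wells as surviving fraction. Beforehand, log-phase tumour cell lines were seeded at 250–500 cells per well in 384-well plates, allowed 24 hours, and exposed continuously for five days to inhibitors at 0.5, 1, 5, 10, 50, 100, 500 and 1000 nM. Only lines whose three screens gave replicate Pearson r >0.7 and median Z' >0.3 were kept.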

U2OS BONE
surviving fraction (0.5 nM): 1.04 ± 0.019
surviving fraction (1 nM): 1.07 ± 0.042
surviving fraction (5 nM): 1.09 ± 0.012
surviving fraction (10 nM): 1.05 ± 0.013
surviving fraction (50 nM): 1.02 ± 0.065
surviving fraction (100 nM): 1.04 ± 0.046
surviving fraction (500 nM): 1.05 ± 0.028
surviving fraction (1000 nM): 1.07 ± 0.024

H23 LUNG
surviving fraction (0.5 nM): 0.981 ± 0.01
surviving fraction (1 nM): 0.997 ± 0.043
surviving fraction (5 nM): 1.05 ± 0.03
surviving fraction (10 nM): 1.022 ± 0.0032
surviving fraction (50 nM): 1 ± 0.069
surviving fraction (100 nM): 1.16 ± 0.072
surviving fraction (500 nM): 1.01 ± 0.034
surviving fraction (1000 nM): 1.06 ± 0.067

CAL72 BONE
surviving fraction (0.5 nM): 0.994 ± 0.016
surviving fraction (1 nM): 1.01 ± 0.017
surviving fraction (5 nM): 1.021 ± 0.0075
surviving fraction (10 nM): 0.9987 ± 0.0091
surviving fraction (50 nM): 0.919 ± 0.042
surviving fraction (100 nM): 0.934 ± 0.025
surviving fraction (500 nM): 0.922 ± 0.033
surviving fraction (1000 nM): 0.938 ± 0.037

HCC202 BREAST
surviving fraction (0.5 nM): 1.1 ± 0.14
surviving fraction (1 nM): 0.842 ± 0.13
surviving fraction (5 nM): 1.06 ± 0.2
surviving fraction (10 nM): 1.04 ± 0.25
surviving fraction (50 nM): 0.945 ± 0.46
surviving fraction (100 nM): 0.785 ± 0.2
surviving fraction (500 nM): 0.908 ± 0.14
surviving fraction (1000 nM): 0.732 ± 0.14

COLO320DM LARGE INTESTINE
surviving fraction (0.5 nM): 1.02 ± 0.063
surviving fraction (1 nM): 1.03 ± 0.12
surviving fraction (5 nM): 1.14 ± 0.081
surviving fraction (10 nM): 1.06 ± 0.069
surviving fraction (50 nM): 1.05 ± 0.094
surviving fraction (100 nM): 1.02 ± 0.087
surviving fraction (500 nM): 1.04 ± 0.092
surviving fraction (1000 nM): 0.977 ± 0.095

93VU HEADNECK
surviving fraction (0.5 nM): 0.962 ± 0.03
surviving fraction (1 nM): 1.08 ± 0.057
surviving fraction (5 nM): 1.06 ± 0.03
surviving fraction (10 nM): 1.02 ± 0.14
surviving fraction (50 nM): 0.868 ± 0.025
surviving fraction (100 nM): 0.964 ± 0.093
surviving fraction (500 nM): 0.849 ± 0.061
surviving fraction (1000 nM): 0.915 ± 0.04

CADOES1 SOFT TISSUE
surviving fraction (0.5 nM): 0.884 ± 0.024
surviving fraction (1 nM): 0.935 ± 0.085
surviving fraction (5 nM): 0.968 ± 0.1
surviving fraction (10 nM): 0.914 ± 0.056
surviving fraction (50 nM): 0.952 ± 0.047
surviving fraction (100 nM): 1.05 ± 0.091
surviving fraction (500 nM): 0.979 ± 0.056
surviving fraction (1000 nM): 0.964 ± 0.073

YAMATO SYNOVIAL
surviving fraction (0.5 nM): 1.24 ± 0.083
surviving fraction (1 nM): 1.26 ± 0.099
surviving fraction (5 nM): 1.34 ± 0.087
surviving fraction (10 nM): 1.37 ± 0.067
surviving fraction (50 nM): 0.917 ± 0.031
surviving fraction (100 nM): 0.967 ± 0.15
surviving fraction (500 nM): 0.805 ± 0.066
surviving fraction (1000 nM): 0.82 ± 0.12

HCC1395 BREAST
surviving fraction (0.5 nM): 0.717 ± 0.018
surviving fraction (1 nM): 0.758 ± 0.12
surviving fraction (5 nM): 0.818 ± 0.031
surviving fraction (10 nM): 0.83 ± 0.12
surviving fraction (50 nM): 0.681 ± 0.14
surviving fraction (100 nM): 0.695 ± 0.055
surviving fraction (500 nM): 0.676 ± 0.052
surviving fraction (1000 nM): 0.772 ± 0.076

MDAMB361 BREAST
surviving fraction (0.5 nM): 0.83 ± 0.021
surviving fraction (1 nM): 0.798 ± 0.039
surviving fraction (5 nM): 0.829 ± 0.043
surviving fraction (10 nM): 0.784 ± 0.051
surviving fraction (50 nM): 0.571 ± 0.019
surviving fraction (100 nM): 0.612 ± 0.093
surviving fraction (500 nM): 0.583 ± 0.049
surviving fraction (1000 nM): 0.598 ± 0.032

SG32 HEADNECK
surviving fraction (0.5 nM): 1.01 ± 0.031
surviving fraction (1 nM): 1.08 ± 0.11
surviving fraction (5 nM): 1.07 ± 0.17
surviving fraction (10 nM): 1.58 ± 0.69
surviving fraction (50 nM): 0.857 ± 0.06
surviving fraction (100 nM): 1.08 ± 0.26
surviving fraction (500 nM): 0.844 ± 0.14
surviving fraction (1000 nM): 0.873 ± 0.075

CAL120 BREAST
surviving fraction (0.5 nM): 0.987 ± 0.019
surviving fraction (1 nM): 0.968 ± 0.018
surviving fraction (5 nM): 0.999 ± 0.012
surviving fraction (10 nM): 1 ± 0.012
surviving fraction (50 nM): 0.997 ± 0.021
surviving fraction (100 nM): 1.01 ± 0.013
surviving fraction (500 nM): 0.942 ± 0.013
surviving fraction (1000 nM): 0.989 ± 0.016

MDAMB453 BREAST
surviving fraction (0.5 nM): 0.926 ± 0.025
surviving fraction (1 nM): 0.966 ± 0.03
surviving fraction (5 nM): 0.951 ± 0.021
surviving fraction (10 nM): 1.03 ± 0.043
surviving fraction (50 nM): 0.89 ± 0.047
surviving fraction (100 nM): 0.954 ± 0.014
surviving fraction (500 nM): 0.949 ± 0.027
surviving fraction (1000 nM): 0.9893 ± 0.0072

DU4475 BREAST
surviving fraction (0.5 nM): 0.969 ± 0.25
surviving fraction (1 nM): 1.1 ± 0.28
surviving fraction (5 nM): 1 ± 0.1
surviving fraction (10 nM): 0.895 ± 0.29
surviving fraction (50 nM): 1.1 ± 0.41
surviving fraction (100 nM): 0.876 ± 0.17
surviving fraction (500 nM): 0.899 ± 0.22
surviving fraction (1000 nM): 0.977 ± 0.32

NCIH441 LUNG
surviving fraction (0.5 nM): 0.971 ± 0.018
surviving fraction (1 nM): 1.02 ± 0.11
surviving fraction (5 nM): 1.01 ± 0.032
surviving fraction (10 nM): 1.05 ± 0.036
surviving fraction (50 nM): 0.971 ± 0.041
surviving fraction (100 nM): 0.945 ± 0.041
surviving fraction (500 nM): 0.9667 ± 0.0045
surviving fraction (1000 nM): 1.03 ± 0.086

CASKI CERVIX
surviving fraction (0.5 nM): 0.939 ± 0.035
surviving fraction (1 nM): 0.979 ± 0.026
surviving fraction (5 nM): 0.958 ± 0.026
surviving fraction (10 nM): 0.973 ± 0.046
surviving fraction (50 nM): 0.828 ± 0.049
surviving fraction (100 nM): 0.893 ± 0.058
surviving fraction (500 nM): 0.876 ± 0.075
surviving fraction (1000 nM): 0.898 ± 0.084

SJSA1 BONE
surviving fraction (0.5 nM): 0.999 ± 0.043
surviving fraction (1 nM): 1.01 ± 0.07
surviving fraction (5 nM): 1.04 ± 0.024
surviving fraction (10 nM): 1.01 ± 0.045
surviving fraction (50 nM): 1.04 ± 0.073
surviving fraction (100 nM): 1.02 ± 0.052
surviving fraction (500 nM): 1.02 ± 0.093
surviving fraction (1000 nM): 0.985 ± 0.05

BT549 BREAST
surviving fraction (0.5 nM): 1.02 ± 0.047
surviving fraction (1 nM): 1.01 ± 0.12
surviving fraction (5 nM): 1.09 ± 0.15
surviving fraction (10 nM): 1.09 ± 0.15
surviving fraction (50 nM): 0.76 ± 0.23
surviving fraction (100 nM): 0.799 ± 0.19
surviving fraction (500 nM): 0.744 ± 0.071
surviving fraction (1000 nM): 0.75 ± 0.018

SCC36 HEADNECK
surviving fraction (0.5 nM): 0.88 ± 0.031
surviving fraction (1 nM): 0.979 ± 0.033
surviving fraction (5 nM): 1.07 ± 0.048
surviving fraction (10 nM): 1.05 ± 0.051
surviving fraction (50 nM): 0.739 ± 0.094
surviving fraction (100 nM): 0.779 ± 0.085
surviving fraction (500 nM): 0.731 ± 0.071
surviving fraction (1000 nM): 0.721 ± 0.076

HCC1806 BREAST
surviving fraction (0.5 nM): 0.902 ± 0.088
surviving fraction (1 nM): 1.03 ± 0.043
surviving fraction (5 nM): 1.18 ± 0.1
surviving fraction (10 nM): 1.05 ± 0.083
surviving fraction (50 nM): 0.932 ± 0.093
surviving fraction (100 nM): 0.98 ± 0.1
surviving fraction (500 nM): 0.896 ± 0.11
surviving fraction (1000 nM): 0.904 ± 0.12

SG43 HEADNECK
surviving fraction (0.5 nM): 0.961 ± 0.18
surviving fraction (1 nM): 1.15 ± 0.63
surviving fraction (5 nM): 0.861 ± 0.075
surviving fraction (10 nM): 0.972 ± 0.32
surviving fraction (50 nM): 1.18 ± 0.35
surviving fraction (100 nM): 0.9673 ± 0.0015
surviving fraction (500 nM): 1.17 ± 0.3
surviving fraction (1000 nM): 1.18 ± 0.14

MG63 BONE
surviving fraction (0.5 nM): 0.925 ± 0.035
surviving fraction (1 nM): 0.9747 ± 0.0063
surviving fraction (5 nM): 0.982 ± 0.023
surviving fraction (10 nM): 0.993 ± 0.026
surviving fraction (50 nM): 0.983 ± 0.003
surviving fraction (100 nM): 1.01 ± 0.02
surviving fraction (500 nM): 0.905 ± 0.007
surviving fraction (1000 nM): 0.966 ± 0.026

ZR751 BREAST
surviving fraction (0.5 nM): 0.853 ± 0.06
surviving fraction (1 nM): 0.937 ± 0.16
surviving fraction (5 nM): 0.799 ± 0.15
surviving fraction (10 nM): 0.971 ± 0.12
surviving fraction (50 nM): 0.756 ± 0.036
surviving fraction (100 nM): 0.857 ± 0.037
surviving fraction (500 nM): 0.835 ± 0.15
surviving fraction (1000 nM): 0.945 ± 0.06

CAL51 BREAST
surviving fraction (0.5 nM): 0.895 ± 0.042
surviving fraction (1 nM): 0.923 ± 0.013
surviving fraction (5 nM): 0.9295 ± 0.0062
surviving fraction (10 nM): 0.931 ± 0.043
surviving fraction (50 nM): 0.931 ± 0.056
surviving fraction (100 nM): 0.975 ± 0.071
surviving fraction (500 nM): 0.9558 ± 0.009
surviving fraction (1000 nM): 0.963 ± 0.01
